# Entries after “also recorded” stand apart in the source; their conditions may differ.
# Experiments:
# DX2-p14/ARF interaction = target: T1, DX2-p14/ARF interaction (Homo sapiens, UniProt Q13155); experiment: Immunoprecipitation analysis of DX2-p14/ARF interaction in cotransfected 293 cells; type: cell-based; settings: MG132, SLCB050 10 μM, 6 hours, IP with Myc antibodies
# T1 construct: expressed in transfected cells; host or cells: 293 (HEK293) cells
# T1 sequence (Q13155 1-251 isoform Q13155-2): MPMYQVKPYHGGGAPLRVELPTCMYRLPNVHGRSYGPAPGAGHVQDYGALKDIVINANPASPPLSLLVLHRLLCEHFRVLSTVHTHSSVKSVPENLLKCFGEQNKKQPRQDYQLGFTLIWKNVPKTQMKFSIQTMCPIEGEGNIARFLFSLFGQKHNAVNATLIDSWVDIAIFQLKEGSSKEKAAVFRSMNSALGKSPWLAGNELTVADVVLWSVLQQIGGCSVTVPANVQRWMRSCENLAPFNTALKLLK
# Method: Here, contransfected 293 cells were allowed to react with MG132 before immunoprecipitation analysis to prevent reduction of two proteins, and after performing SLCB050 treatment (10 μM, 6 hours), immunoprecipitation assay was performed on the cells by using Myc antibodies (DX2).
# Here, 293 cells were transfected with indicating vectors for 24 hours and was allowed to react with MG132 and SLCB050 for 6 hours.
# Immunoprecipitation (IP) assay was performed with cell lysate or recombinant protein with RIPA buffer. The whole lysates were incubated with suitable antibodies for 2 hours at a temperature of 4° C. for a reaction, and then, the mixtures were added with A/G-agarose beads-conjugated secondary antibody (Invitrogen, Carlsbad, Calif., USA) for 2 hours. After incubation for a reaction, the mixtures were washed using RIPA buffer twice, and precipitated proteins were determined by western blot analysis.
# p53-p14/ARF interaction = target: T2, p53-p14/ARF interaction (Homo sapiens, UniProt P04637+Q8N726); experiment: GST pull-down assay, selectivity: p53-p14/ARF interaction; type: binding; settings: FIG. 3D, 3E
# T2 construct: a p14/ARF fragment (full-length) was ligated into EcoRI and Hind II sites of pGEX-TEV vector; made in house; host or cells: E. coli BL21(DE3) for GST-p14/ARF
# Text: Through GST pull-down assays, more specific binding inhibitors were selected among the previously screened candidate drugs as DX2-p14/ARF binding inhibitors. That is, a p14/ARF fragment (full-length) was ligated into EcoRI and Hind II sites of pGEX-TEV vector, which is a modified vector by adding a TEV protease cleavage site to pGEX-4T1. The recombinant proteins were then expressed in E. coli strain BL21(DE3) as GST-fusion proteins. The proteins were purified by glutathione affinity chromatography.
# To address direct binding between the two proteins, agarose-bead conjugated GST (negative control) or GST-target protein was incubated with cell lysate or recombinant protein in radioimmunoprecipitation assay (RIPA) buffer (NaCl, 25 mM Tris-Cl, 1% NP-40, 1% sodium deoxycholate, 0.1% SDS, protease inhibitor mixture) for 1 hour at a temperature of 4° C. for a reaction.
# [1] = system: human lung cancer cell lines; experiment: MTT viability of various human lung cancer cell lines; type: cell-based; settings: 24 hours, MTT assay, FIG. 5
# Method: (§1) By MTT assay, anticancer effects were confirmed based on viability of tumor cells. That is, cells were incubated in 0.5 mg/ml of MTT solution for 4 hours at a temperature of 37° C. for a reaction, and then, formazen products formed therefrom were dissolved in dimethyl sulfoxide (DMSO). Then, absorbance thereof was measured at 540 nm by using a spectrometer.
# [2] = system: H128 cells (SCLC cell line); experiment: Soft agar colony formation assay in H128 cells; type: cell-based, human; settings: 48 hours, trypan blue staining, FIG. 6
# Method: H128 cells which are SCLC cell lines were seeded in soft agar plates and allowed to react with SLCB050 for 48 hours, and then, the cells were examined after staining the cells with trypan blue.
# [3] = system: DX2 and DK MEFs; primary tumor cells from DX2 and DK mice; experiment: Reduction of anticancer drug resistance in DX2 and DK MEFs or primary tumor cells (MTT); type: cell-based, mouse
# Method: as §1
# lung tumors of DK mice = experiment: In vivo anticancer effect in DK mice (lung tumors)
# Method: All experimental procedures using laboratory animals were approved by the animal care committee of Pusan National University. DX2 (C57/BL6) and K-RasLA2 (C57/BL6) mice were obtained from Dr. Kim, Sung-Hoon and Professor. Choi, Kang-Ryeol (Yonsei University), respectively, and double Tg mice were obtained by cross-breeding of DX2 and K-RasLA2 mice. Before experiment, all mice were maintained under temperature- and light-controlled conditions (20-23° C., 12 h/12 h light/dark cycle), and provided autoclaved food and water.
# Every weeks, tumor volume and body weight were measured.
# After dissection of mice, tissues were fixed using 10% formalin (in PBS) for 24 hours, and embedded in paraffin blocks according to a basic tissue processing procedure. For histological analysis, embedded tissues were cut for […] by Leica microtome (Wetzlar, Germany) and transferred onto adhesive-coated slides (Marienfeld laboratory glassware, Germany). After deparaffin and rehydration, sections were then stained with H&E for routine examination.
# For IHC staining, rehydrated tissue sections were incubated with antibodies to Ki-67 (Abcam, ab15580), pan-keratin (Sigma, C2931), pro-surfactant C (Millipore, AB3786), NSE (DAKO, IS612), and HER2/Neu (DAKO, A0458) for a reaction. Antigen retrieval was performed using 10 mM sodium citrate (pH 6.0) twice at a temperature of 95° C. for 10 minutes each, and endogenous peroxidase activity was blocked with 3% […] for 10 min. Then, the slides were dehydrated following a standard procedure and sealed with cover glass using mounting solution. TUNEL reaction was done as described in the manual for In Situ Cell Death Detection Kit, POD (Hoffmann-La Roche Ltd, Basel, Swizerland).
# To evaluate tumor incidence, lung tissues of each mouse was fixed and embedded in paraffin. 5 sections from each mouse were examined by 3 independent investigator, who counted tumor. In addition, tumor area was calculated by tumor occupied area in total lung area using photoshop software.
# T2 sequence (Q8N726 whole entry, the tested form may be a part): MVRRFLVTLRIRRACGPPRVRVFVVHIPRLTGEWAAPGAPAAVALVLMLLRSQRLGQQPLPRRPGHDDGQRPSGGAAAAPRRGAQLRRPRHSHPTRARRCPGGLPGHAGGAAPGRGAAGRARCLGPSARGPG
# T2 sequence (P04637 whole entry, the tested form may be a part): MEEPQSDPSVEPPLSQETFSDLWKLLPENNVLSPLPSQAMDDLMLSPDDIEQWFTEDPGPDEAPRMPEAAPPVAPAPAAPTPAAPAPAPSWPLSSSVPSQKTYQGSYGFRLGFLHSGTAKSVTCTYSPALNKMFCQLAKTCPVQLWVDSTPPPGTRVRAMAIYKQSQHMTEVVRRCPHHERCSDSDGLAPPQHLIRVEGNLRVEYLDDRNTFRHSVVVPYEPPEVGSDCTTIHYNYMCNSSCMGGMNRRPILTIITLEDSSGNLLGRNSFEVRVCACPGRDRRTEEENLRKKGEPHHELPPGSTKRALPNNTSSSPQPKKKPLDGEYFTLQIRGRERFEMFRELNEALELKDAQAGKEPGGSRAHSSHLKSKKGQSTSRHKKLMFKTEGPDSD
structure (smiles),measurement,setting,value
"CC1(C)Oc2cc3oc(=O)ccc3cc2C[C@@H]1OC(=O)/C=C/c1ccco1 [SLCB050, (7S)-(+)-3-(2-Furanyl)-acrylic acid, 8,8-dimethyl-2-oxo-6,7-dihydro-2H,8H-pyrano[3,2-g]chromen-7-yl-ester]",interaction of p14/ARF with DX2 in cells,DX2-p14/ARF interaction,inhibited the interaction of p14/ARF with DX2 in cells
same,effect on interaction of p53-p14/ARF,p53-p14/ARF interaction,did not affect the interaction of p53-p14/ARF
same,viability of SCLC cells,[1],very sensitive
same,viability of p14/ARF-deficient cell lines,[1],resistant
same,number of colonies / H128 cell growth in soft agar,[2],completely suppressed the H128 cell growth; also recorded: reduced the number of colonies in a dose-dependent manner
same,resistance to Adriamycin in primary tumor cells from DX2 and DK mice,"[3]; Adriamycin 0.2 μg/ml with SLCB050 10 μM, 24 hours, FIG. 8B",resistance to Adriamycin was also abolished
same,resistance to GN25 in DX2 and DK MEFs,"[3]; GN25 5 μM with SLCB050 10 or 20 μM, 6 hours, FIG. 8A",resistance to GN25 in DX2 and DK cells was abolished
same,"weight loss, combination","lung tumors of DK mice; DK mice, SLCB050 10 mg/kg and Adriamycin 2.5 mg/kg",without significant weight loss
same,"tumor progression, combination","lung tumors of DK mice; DK mice, SLCB050 10 mg/kg and Adriamycin 2.5 mg/kg, i.p., FIG. 10B, 10C",significantly suppressed tumor progression; also recorded: induced tumor regression
same,DX2 level in vivo (western blot),"lung tumors of DK mice; DK mice, SLCB050 treatment, FIG. 12A",reduction of DX2
same,"tumor volumes, combination","lung tumors of DK mice; DK mice, combinational treatment with Adriamycin and SLCB050, FIG. 10C",reduced tumor volumes
same,"SCLC regions in lung tissue (H-E staining), combination","lung tumors of DK mice; DK mice, combinational treatment with Adriamycin and SLCB050, FIG. 11",more obviously erased
same,apoptotic tumor cells (TUNEL staining),"lung tumors of DK mice; lung tissues of DK mice treated with Adriamycin and SLCB050 in combination, FIG. 12B, 12C",obviously increased apoptosis tumer cells
